From US5462954A, “Substituted phenyl phenol leukotriene antagonists” (Eli Lilly and Company, priority 1994, dated 1995)
Structures can show the parent of a compound that is named as a salt.

biological target: binding of tritiated LTB4 to guinea pig lung membranes (Cavia porcellus, UniProt H0VYV8); assay: biochemical; settings: inhibition of [3H]-LTB4 binding, guinea pig lung membranes; mean of n experiments; ~140 pM [3H]-LTB4, 45 minutes, 30° C., pH 6.5
Sequence (H0VYV8 1-348): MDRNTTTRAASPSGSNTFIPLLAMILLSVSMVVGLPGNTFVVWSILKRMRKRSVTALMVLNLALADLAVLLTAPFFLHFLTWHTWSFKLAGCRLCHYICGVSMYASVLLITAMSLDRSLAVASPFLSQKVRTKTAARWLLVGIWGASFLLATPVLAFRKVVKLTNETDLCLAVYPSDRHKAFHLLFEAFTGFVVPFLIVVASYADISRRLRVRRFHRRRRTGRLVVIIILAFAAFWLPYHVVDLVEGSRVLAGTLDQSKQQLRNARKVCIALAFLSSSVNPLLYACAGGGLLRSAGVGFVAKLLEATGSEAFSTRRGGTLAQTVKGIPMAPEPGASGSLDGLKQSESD
Procedure: The effectiveness of compounds of Formula I to inhibit the binding of tritiated LTB4 to guinea pig lung membranes was determined as follows.
The binding reaction was terminated by the addition of 1 mL ice cold wash buffer (25 mM Tris-HCl, pH 7.5) followed immediately by vacuum filtration over Whatman GF/C glass fiber filters using a Brandel (Gaithersburg, Md.) 48 place harvester. The filters were washed three times with 1 mL of wash buffer. Retained radioactivity was determined by liquid scintillation counting at 50% counting efficiency using Ready Protein Plus cocktail (Beckman, Fullerton, Calif.). Nondisplaceable binding was determined in the presence of 1 μM LTB4 and was usually less than 10% of total binding. […] The data reported below is the mean -log Ki, otherwise known as the pKi, for n experiments.

pKi (mean -log Ki)	SMILES
7.67	CCc1cc(-c2ccc(F)cc2)c(O)cc1OCCCOc1cccc(C(=O)c2ccccc2C(=O)O)c1 [Example 97, 2-[3-[3-[2-Ethyl-5-hydroxy-4-(4-fluorophenyl)phenoxy]propoxy]benzoyl]benzoic acid disodium salt hemihydrate]

same assay, conditions: read-out: pKi (mean -log Ki) (converted)

Ki [nM]	SMILES
30.2	CCCCOc1cccc(OCCCOc2cc(O)c(-c3ccc(F)cc3)cc2CC)c1CCC(=O)O [Example 14, 3-(2-(3-(2-Ethyl-4-(4-fluorophenyl)-5-hydroxyphenoxy)propoxy)-6-(4-butyloxy)phenyl)propionic acid]
0.219	CCc1cc(-c2ccc(F)cc2)c(O)cc1OCCCOc1ccc2c(c1CCC(=O)O)CCC(CC(=O)O)C2=O (centres unmarked) [Example 51, 3-(5-(6-(4-(4-Fluorophenyl)-5-hydroxy-2-ethylphenoxy)propoxy)-2-carboxymethyl-1,2,3,4-tetrahydronaphthalen-1(2H)-one)propanoic acid]
3.89	CCc1cc(-c2ccc(F)cc2)c(O)cc1OCC/C=C/c1ccccc1CCC(=O)O [9 (trans), 3-(2-(4-(2-Ethyl-4-(4-fluorophenyl)-5-hydroxyphenoxy)-(1-butenyl))phenyl)propionic acid]
53.7	CCc1cc(-c2ccc(F)cc2)c(O)cc1OCCCOc1cccc(Oc2ccccc2C(=O)O)c1Cc1ccccc1 [Example 76, 2-[2-(Phenylmethyl)-3-[3-[2-ethyl-5-hydroxy-4-(4-fluorophenyl)phenoxy]propoxy]phenoxy]benzoic acid]
17	CCCc1c(OCCCOc2cc(O)c(-c3ccc(F)cc3)cc2CC)cccc1Oc1cc(F)ccc1C(=O)O [Example 71, 4-Fluoro-2-[2-propyl-3-[3-[2-ethyl-5-hydroxy-4-(4-fluorophenyl)phenoxy]propoxy]phenoxy]benzoic acid]
57.5	CCc1cc(-c2ccccc2)c(O)cc1OCCCOc1cc(-c2ccccc2)ccc1CCC(=O)O [Example 62, 3-[3-(2-Ethyl-5-hydroxy-4-phenylphenoxy)propoxy][1,1'-biphenyl]-4-propanoicacid disodium salt monohydrate]
10.5	CCCc1c(Cc2ccccc2C(=O)O)cccc1OCCCOc1cc(O)c(-c2ccc(F)cc2)cc1CC [Example 79, 2-[[2-Propyl-3-[3-[2-ethyl-5-hydroxy-4-(4-fluorophenyl)phenoxy]propoxy]phenyl]methyl]benzoic acid]
9.55	CCc1cc(-c2ccc(F)cc2)c(O)cc1OCCCOc1ccccc1/C=C/C(=O)O [Example 87, 3-(2-(3-(2-Ethyl-4-(4-fluorophenyl)-5-hydroxyphenoxy)propoxy)phenyl)-E-propenoic acid]
0.0661	CCc1cc(-c2ccc(F)cc2)c(O)cc1OCCCOc1ccc(C#CCCC(=O)O)cc1CCC(=O)O [Example 83, 5-[3-[2-(1-Carboxy)ethyl]-4-[3-[2-ethyl-4-(4-fluorophenyl)-5-hydroxyphenoxy]propoxy]phenyl]-4-pentynoic acid disodium salt 0.4 hydrate]
47.9	CCCCc1cc(-c2ccc(F)cc2)c(O)cc1OCCCOc1ccccc1CCC(=O)O [Example 21, 3-(2-(3-(2-Butyl-4-(4-fluorophenyl)-5-hydroxyphenoxy)propoxy)phenyl)propionic acid]
0.257	CCc1cc(-c2ccc(F)cc2)c(O)cc1OCCCOc1ccc(CCCCC(=O)O)c2c1CCC(=O)O2 [Example 33, 5-(3-(2-Ethyl-4-(4-fluorophenyl)-5-hydroxyphenoxy)propoxy)-8-(4-carboxybutyl)dihydrocoumarin]

SMILES	Ki [nM]
O=C(O)CCCCOc1cccc(OCCCOc2cc(O)c(-c3ccc(F)cc3)cc2-c2ccc(F)cc2)c1CCC(=O)O [Example 16, 3-(2-(3-(2,4-Di(4-fluorophenyl)-5-hydroxyphenoxy)propoxy)-6-(4-carboxybutoxy)phenyl)propionic acid]	17.4
CCCc1c(OCCCCOc2cc(O)c(-c3ccc(F)cc3)cc2CC)cccc1Oc1ccccc1C(=O)O [Example 73, 2-[2-Propyl-3-[4-[2-ethyl-5-hydroxy-4-(4-fluorophenyl)phenoxy]butoxy]phenoxy]benzoic acid sesquihydrate]	17.8
